Data on 14 molecules can be found in ChEMBL document CHEMBL5137079, “Structure-Based Design of Xanthine-Benzimidazole Derivatives as Novel and Potent Tryptophan Hydroxylase Inhibitors” (J Med Chem, 2022).

The nature of series [1]: Solubility of the compound in simulated intestinal fluid at upto 200 uM by HPLC-UV analysis. The format is physicochemical.
Series [2] in a line: Solubility of the compound in PBS at pH 7.4 at upto 200 uM by HPLC-UV analysis. The class given is physicochemical.
Series [3] can be described thus: Solubility of the compound in simulated gastric fluid at upto 200 uM by HPLC-UV analysis. The format is physicochemical.
Series [4] in a line: Metabolic stability in human hepatocytes assessed as half life. The class given is ADME, cell-based, Hepatocyte.
Series [5] can be described thus: Metabolic stability in rat hepatocytes assessed as half life. The class given is ADME, cell-based, Hepatocyte.
Series [6] in a line: Metabolic stability in rat hepatocytes assessed as intrinsic clearance. The format is ADME, cell-based, Hepatocyte. Conditions: read-out: CLH.
Series [7] can be described thus: Metabolic stability in human hepatocytes assessed as intrinsic clearance. The class given is ADME, cell-based, Hepatocyte. The conditions noted are these: read-out: CLH.
Series [8] in a line: AUCinfinity in ICR mouse plasma at 50 mg/kg, po administered as single dose measured for 1440 mins by LC-MS/MS analysis. Set-up: time 1440 min, dose 50 mg/kg, route po. The format is ADME, organism-based.
The nature of series [9]: AUCinfinity in ICR mouse brain at 50 mg/kg, po administered as single dose measured for 1440 mins by LC-MS/MS analysis. The format is ADME, organism-based. More on the design: time 1440 min, dose 50 mg/kg, route po.

Molecules are shown by their SMILES. Converted amounts (≈) assume the structure as drawn.

Turning to `CCn1c(=O)[nH]c(=O)c2c1nc(Cc1nc3ccccc3[nH]1)n2Cc1ccccc1`, the solubility in series [1] is 158 µM (≈ 63.2 µg/mL); in series [2], 181 µM (≈ 72.6 µg/mL); in series [3], 162 µM (≈ 64.8 µg/mL). Moreover, the half-life worked out at 0.2 h in [4] and 1 h in series [5].
On to `O=c1[nH]c(=O)n(C2CC2)c2nc(Cc3nc4ccc(O)cc4[nH]3)n(Cc3ccccc3)c12`, for which the solubility in series [1] was 185 µM (≈ 79.1 µg/mL); in series [2] it was 171 µM (≈ 73.4 µg/mL); in series [3], 165 µM (≈ 70.6 µg/mL). In addition, the CLint scaled in [6] and in series [7] was less than 115 mL/min/kg in each case. The half-life in series [4] and in series [5] was greater than 1 h each time.
As for `COC(=O)c1ccc2nc(Cc3nc4c(c(=O)[nH]c(=O)n4C4CC4)n3Cc3ccccc3)[nH]c2c1`, the solubility in [1] is 195 µM (≈ 91.8 µg/mL); in [2], 197 µM (≈ 92.8 µg/mL); in series [3], 198 µM (≈ 93.2 µg/mL). Moreover, the CLint scaled in [6] and in series [7] was less than 115 mL/min/kg in each case. For the same molecule, the half-life in series [4] and in series [5] was greater than 1 h throughout.
In the case of `COc1ccc2nc(Cc3nc4c(c(=O)[nH]c(=O)n4C4CC4)n3Cc3ccccc3)[nH]c2c1`, the solubility was 195 µM (≈ 86.3 µg/mL) in series [1], 197 µM (≈ 87.1 µg/mL) in series [2] and 162 µM (≈ 71.6 µg/mL) in series [3]. In [6], the CLint scaled is less than 115 mL/min/kg. Further, the half-life was 0.1 h in [4] and greater than 1 h in series [5].
As to `O=c1[nH]c(=O)n(C2CC2)c2nc(Cc3nc4ccc(OCCO)cc4[nH]3)n(Cc3ccccc3)c12`, the solubility was 189 µM (≈ 89.2 µg/mL) in series [1], 186 µM (≈ 87.7 µg/mL) in series [2] and 186 µM (≈ 87.9 µg/mL) in [3]. The CLint scaled in series [6] and in series [7] was less than 115 mL/min/kg throughout. Also, the half-life in [4] and in series [5] was greater than 1 h in each case.
For the molecule `CCn1c(=O)[nH]c(=O)c2c1nc(Cc1nc3cc4c(cc3[nH]1)OCO4)n2Cc1ccccc1`, the solubility was 166 µM (≈ 73.8 µg/mL) in [1], 186 µM (≈ 82.8 µg/mL) in [2] and 191 µM (≈ 84.8 µg/mL) in [3]. Also, the half-life in series [4] is greater than 1 h; in [5], 1 h. For the same molecule, the CLint scaled in [7] was less than 115 mL/min/kg. Also, the AUC(0-inf) came out at 7450 ng·h/mL in series [8] and 195 ng·h/mL in series [9].
As to `Cn1c(=O)[nH]c(=O)c2c1nc(Sc1nc3cc(NC(=O)CC[C@H](N)C(=O)O)ccc3[nH]1)n2Cc1ccccc1`, the solubility in series [1] was 116 µM (≈ 63.4 µg/mL); in series [2], 172 µM (≈ 94.2 µg/mL); in [3], greater than 200 µM. The CLint scaled in [6] and in series [7] was less than 115 mL/min/kg throughout. The half-life in series [4] and in series [5] was greater than 1 h each time.
With `O=c1[nH]c(=O)n(C2CC2)c2nc(Cc3nc4ccccc4[nH]3)n(Cc3ccccc3)c12`, the solubility in series [1] is 168 µM (≈ 69.2 µg/mL); in series [2] it was 167 µM (≈ 69 µg/mL); in [3], 180 µM (≈ 74.1 µg/mL). Besides, the half-life worked out at 0.1 h in series [4] and 0.583 h in series [5].
With `O=c1[nH]c(=O)n(C2CC2)c2nc(Cc3nc4ccc(F)cc4[nH]3)n(Cc3ccccc3)c12`, the solubility in series [1] was 154 µM (≈ 66.4 µg/mL); in series [2] it was greater than 200 µM; in series [3], 198 µM (≈ 85.4 µg/mL). For the same molecule, in series [6], the CLint scaled was less than 115 mL/min/kg. The half-life in series [4] was 0.533 h; in series [5], greater than 1 h.
On to `CCCn1c(=O)[nH]c(=O)c2c1nc(Cc1nc3cc(O)ccc3[nH]1)n2Cc1ccccc1`, for which the solubility in [1] is 159 µM (≈ 68.5 µg/mL); in [2], greater than 200 µM; in series [3], 189 µM (≈ 81.3 µg/mL). Further, the CLint scaled in series [6] and in series [7] was less than 115 mL/min/kg throughout. Moreover, the half-life in series [4] and in series [5] was greater than 1 h throughout.
In the case of `N#Cc1ccc2nc(Cc3nc4c(c(=O)[nH]c(=O)n4C4CC4)n3Cc3ccccc3)[nH]c2c1`, the solubility in series [1] is 196 µM (≈ 85.6 µg/mL); in [2] it was 154 µM (≈ 67.2 µg/mL); in series [3], 196 µM (≈ 85.8 µg/mL). In addition, the CLint scaled in series [6] and in [7] was less than 115 mL/min/kg throughout. For the same molecule, the half-life in [4] and in series [5] was greater than 1 h each time.
Consider `CCn1c(=O)[nH]c(=O)c2c1nc(Sc1nc3ccccc3[nH]1)n2Cc1ccccc1`, for which the solubility in series [1] is 176 µM (≈ 73.5 µg/mL); in [2] it was 5.3 µM (≈ 2.22 µg/mL); in [3], 195 µM (≈ 81.5 µg/mL). Moreover, the figures for the half-life in [4] and in series [5] were 0.0833 h and 0.167 h, respectively.
In the case of `CCCn1c(=O)[nH]c(=O)c2c1nc(Sc1nc3ccccc3[nH]1)n2Cc1ccccc1`, the values for the solubility in series [1], in [2] and in [3] were 150 µM (≈ 65 µg/mL), 11.8 µM (≈ 5.1 µg/mL) and 173 µM (≈ 74.8 µg/mL), respectively. The half-life was 0.0667 h in series [4] and 0.0833 h in series [5].
On to `O=c1[nH]c(=O)n(C2CC2)c2nc(Cc3nc4cc5c(cc4[nH]3)OCO5)n(Cc3ccccc3)c12`, for which the solubility in series [1] is 191 µM (≈ 87.3 µg/mL); in series [2] it was 22.9 µM (≈ 10.5 µg/mL); in series [3], 193 µM (≈ 87.9 µg/mL). The CLint scaled in series [6] and in [7] was less than 115 mL/min/kg each time. The half-life in series [4] and in [5] was greater than 1 h throughout.

A word on the solubility: it is the dissolved amount per volume that the medium holds. A high value points to much dissolved substance. In general, half-life refers to the time in which the quantity being followed falls by half. By AUC(0-inf) is commonly meant the area under the concentration-time curve extrapolated to infinity.
